The compounds below were run against T1, STK10 (Homo sapiens, UniProt O94804) (assay: DSF Tm panel). Conditions: 10 μM compound.
T1 construct: purchased in-house DSF kinase panel (SGC-style construct names; the trailing letter is the construct ID)
Assay type: binding

T1 sequence (O94804 18-317 limits assumed): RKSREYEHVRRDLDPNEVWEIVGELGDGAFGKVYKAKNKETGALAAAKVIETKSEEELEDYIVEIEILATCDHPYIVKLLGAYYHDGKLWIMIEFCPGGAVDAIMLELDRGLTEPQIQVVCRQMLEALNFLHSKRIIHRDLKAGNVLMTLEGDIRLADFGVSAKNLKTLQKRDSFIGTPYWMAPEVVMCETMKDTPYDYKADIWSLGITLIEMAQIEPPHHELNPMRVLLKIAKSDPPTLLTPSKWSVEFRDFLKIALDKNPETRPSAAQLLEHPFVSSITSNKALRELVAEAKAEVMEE

SMILES | ΔTm at 10 µM [°C]
C[C@H](NC(=O)Nc1ccc2cc1OCCOCCNc1ccn3ncc-2c3n1)c1ccccc1 [compound 34] | 5.6
CN1CCN(C(=O)Nc2ccc3cc2OCCOCCNc2ccn4ncc-3c4n2)CC1 [compound 35] | 3.7

These compounds were tested against T2, UKL3A (ULK3A) (Homo sapiens, UniProt Q6PHR2) (assay: DSF Tm panel). Conditions: 10 μM compound.
T2 construct: purchased in-house DSF kinase panel (SGC-style construct names; the trailing letter is the construct ID)
T2 sequence (Q6PHR2 1-279): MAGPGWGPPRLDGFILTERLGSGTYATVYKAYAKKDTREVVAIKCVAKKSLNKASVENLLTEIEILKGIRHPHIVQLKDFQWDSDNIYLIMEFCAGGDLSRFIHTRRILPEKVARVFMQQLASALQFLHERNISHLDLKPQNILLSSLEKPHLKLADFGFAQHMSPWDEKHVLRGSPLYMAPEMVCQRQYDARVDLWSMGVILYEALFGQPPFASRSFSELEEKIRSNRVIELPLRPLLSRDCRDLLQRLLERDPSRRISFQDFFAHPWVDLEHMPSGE
Assay type: binding

SMILES | ΔTm at 10 µM [°C]
C[C@H](NC(=O)Nc1ccc2cc1OCCOCCNc1ccn3ncc-2c3n1)c1ccccc1 [compound 34] | 4.1
CN1CCN(C(=O)Nc2ccc3cc2OCCOCCNc2ccn4ncc-3c4n2)CC1 [compound 35] | 2.7

The compounds below were run against T3, CLK1A (Homo sapiens, UniProt P49759) (assay: DSF Tm panel). Conditions: 10 μM compound.
T3 construct: purchased in-house DSF kinase panel (SGC-style construct names; the trailing letter is the construct ID)
T3 sequence (P49759 148-484): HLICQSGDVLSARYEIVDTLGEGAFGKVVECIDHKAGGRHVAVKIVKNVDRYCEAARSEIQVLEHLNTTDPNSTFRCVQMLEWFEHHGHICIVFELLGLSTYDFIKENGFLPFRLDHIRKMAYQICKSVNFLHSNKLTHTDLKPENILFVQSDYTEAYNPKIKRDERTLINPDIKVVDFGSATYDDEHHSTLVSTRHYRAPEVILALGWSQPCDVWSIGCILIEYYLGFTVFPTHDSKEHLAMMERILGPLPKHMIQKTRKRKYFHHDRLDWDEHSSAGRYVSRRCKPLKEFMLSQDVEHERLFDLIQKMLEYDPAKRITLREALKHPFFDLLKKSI
Assay type: binding

SMILES | ΔTm at 10 µM [°C]
C[C@H](NC(=O)Nc1ccc2cc1OCCOCCNc1ccn3ncc-2c3n1)c1ccccc1 [compound 34] | 3.1
CN1CCN(C(=O)Nc2ccc3cc2OCCOCCNc2ccn4ncc-3c4n2)CC1 [compound 35] | 2.9

These compounds were tested against T4, DAPK3 (DAPK3A) (Homo sapiens, UniProt O43293) (assay: DSF Tm panel). Conditions: 10 μM compound.
T4 construct: purchased in-house DSF kinase panel (SGC-style construct names; the trailing letter is the construct ID)
T4 sequence (O43293 whole entry): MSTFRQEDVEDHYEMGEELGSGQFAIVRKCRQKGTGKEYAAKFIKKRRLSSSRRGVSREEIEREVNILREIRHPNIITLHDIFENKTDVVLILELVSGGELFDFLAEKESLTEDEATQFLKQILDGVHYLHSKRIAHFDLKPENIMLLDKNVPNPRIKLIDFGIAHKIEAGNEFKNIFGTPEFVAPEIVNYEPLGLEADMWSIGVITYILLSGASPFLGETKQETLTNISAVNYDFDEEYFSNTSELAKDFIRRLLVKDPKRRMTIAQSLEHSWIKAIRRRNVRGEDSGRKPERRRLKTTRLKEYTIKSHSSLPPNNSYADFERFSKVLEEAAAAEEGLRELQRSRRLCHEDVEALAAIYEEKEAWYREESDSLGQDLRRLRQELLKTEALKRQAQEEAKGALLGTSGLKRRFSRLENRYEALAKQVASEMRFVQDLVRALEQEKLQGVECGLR
Assay type: binding

SMILES | ΔTm at 10 µM [°C]
C[C@H](NC(=O)Nc1ccc2cc1OCCOCCNc1ccn3ncc-2c3n1)c1ccccc1 [compound 34] | 1.8
CN1CCN(C(=O)Nc2ccc3cc2OCCOCCNc2ccn4ncc-3c4n2)CC1 [compound 35] | 2.8

What follows are compounds tested against T5, MAP3K5A (Homo sapiens, UniProt Q99683) (assay: DSF Tm panel). Conditions: 10 μM compound.
T5 construct: purchased in-house DSF kinase panel (SGC-style construct names; the trailing letter is the construct ID)
T5 sequence (Q99683 659-951): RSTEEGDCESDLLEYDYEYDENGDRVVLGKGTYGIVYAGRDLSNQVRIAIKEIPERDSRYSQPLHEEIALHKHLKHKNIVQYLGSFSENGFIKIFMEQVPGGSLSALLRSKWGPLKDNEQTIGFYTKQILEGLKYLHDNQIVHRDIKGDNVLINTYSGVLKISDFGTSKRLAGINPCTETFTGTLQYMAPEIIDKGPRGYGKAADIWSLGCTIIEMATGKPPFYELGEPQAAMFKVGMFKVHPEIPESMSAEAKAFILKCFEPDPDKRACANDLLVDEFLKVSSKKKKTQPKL
Assay type: binding

SMILES | ΔTm at 10 µM [°C]
C[C@H](NC(=O)Nc1ccc2cc1OCCOCCNc1ccn3ncc-2c3n1)c1ccccc1 [compound 34] | 0.8
CN1CCN(C(=O)Nc2ccc3cc2OCCOCCNc2ccn4ncc-3c4n2)CC1 [compound 35] | 1.7

These compounds were tested against T6, PCTK1A (Homo sapiens, UniProt Q00536) (assay: DSF Tm panel). Conditions: 10 μM compound.
T6 construct: purchased in-house DSF kinase panel (SGC-style construct names; the trailing letter is the construct ID)
T6 sequence (Q00536 163-478): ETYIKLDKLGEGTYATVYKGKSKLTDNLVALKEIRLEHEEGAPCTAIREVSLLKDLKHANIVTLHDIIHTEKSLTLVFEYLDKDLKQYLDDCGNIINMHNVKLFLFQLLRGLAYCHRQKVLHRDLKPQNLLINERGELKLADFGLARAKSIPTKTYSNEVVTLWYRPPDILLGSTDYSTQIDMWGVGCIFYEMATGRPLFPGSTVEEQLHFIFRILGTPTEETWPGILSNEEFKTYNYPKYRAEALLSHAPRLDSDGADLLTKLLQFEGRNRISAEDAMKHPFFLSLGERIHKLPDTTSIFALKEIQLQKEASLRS
Assay type: binding

SMILES | ΔTm at 10 µM [°C]
C[C@H](NC(=O)Nc1ccc2cc1OCCOCCNc1ccn3ncc-2c3n1)c1ccccc1 [compound 34] | 0.5
CN1CCN(C(=O)Nc2ccc3cc2OCCOCCNc2ccn4ncc-3c4n2)CC1 [compound 35] | 1

These compounds were tested against T7, MAP2K6A (Homo sapiens, UniProt P52564) (assay: DSF Tm panel). Conditions: 10 μM compound.
T7 construct: purchased in-house DSF kinase panel (SGC-style construct names; the trailing letter is the construct ID)
T7 sequence (P52564 53-314): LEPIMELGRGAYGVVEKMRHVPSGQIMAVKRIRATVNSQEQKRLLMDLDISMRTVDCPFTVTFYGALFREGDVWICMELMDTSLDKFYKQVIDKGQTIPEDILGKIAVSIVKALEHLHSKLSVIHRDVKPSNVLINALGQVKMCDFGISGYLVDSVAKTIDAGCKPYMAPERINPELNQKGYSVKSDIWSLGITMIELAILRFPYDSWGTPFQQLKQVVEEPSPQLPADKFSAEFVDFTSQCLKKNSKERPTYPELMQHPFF
Assay type: binding

SMILES | ΔTm at 10 µM [°C]
C[C@H](NC(=O)Nc1ccc2cc1OCCOCCNc1ccn3ncc-2c3n1)c1ccccc1 [compound 34] | 0.8
CN1CCN(C(=O)Nc2ccc3cc2OCCOCCNc2ccn4ncc-3c4n2)CC1 [compound 35] | 0.4

Each compound was assayed against T8, CAMK2BA (Homo sapiens, UniProt Q13554) (assay: DSF Tm panel). Conditions: 10 μM compound.
T8 construct: purchased in-house DSF kinase panel (SGC-style construct names; the trailing letter is the construct ID)
T8 sequence (Q13554 11-303): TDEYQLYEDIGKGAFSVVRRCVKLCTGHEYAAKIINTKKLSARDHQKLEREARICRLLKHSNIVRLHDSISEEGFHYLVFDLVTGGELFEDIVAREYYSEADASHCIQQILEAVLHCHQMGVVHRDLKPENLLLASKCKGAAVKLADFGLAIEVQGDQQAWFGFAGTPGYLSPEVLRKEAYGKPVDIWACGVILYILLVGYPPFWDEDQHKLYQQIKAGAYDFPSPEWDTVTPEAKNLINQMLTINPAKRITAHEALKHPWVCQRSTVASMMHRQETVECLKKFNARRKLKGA
Assay type: binding

SMILES | ΔTm at 10 µM [°C]
C[C@H](NC(=O)Nc1ccc2cc1OCCOCCNc1ccn3ncc-2c3n1)c1ccccc1 [compound 34] | -0.3
CN1CCN(C(=O)Nc2ccc3cc2OCCOCCNc2ccn4ncc-3c4n2)CC1 [compound 35] | 0.6

These compounds were tested against T9, ABL1 (ABL1A) (Homo sapiens, UniProt P00519) (assay: DSF Tm panel). Conditions: 10 μM compound.
T9 construct: purchased in-house DSF kinase panel (SGC-style construct names; the trailing letter is the construct ID)
T9 sequence (P00519 229-512): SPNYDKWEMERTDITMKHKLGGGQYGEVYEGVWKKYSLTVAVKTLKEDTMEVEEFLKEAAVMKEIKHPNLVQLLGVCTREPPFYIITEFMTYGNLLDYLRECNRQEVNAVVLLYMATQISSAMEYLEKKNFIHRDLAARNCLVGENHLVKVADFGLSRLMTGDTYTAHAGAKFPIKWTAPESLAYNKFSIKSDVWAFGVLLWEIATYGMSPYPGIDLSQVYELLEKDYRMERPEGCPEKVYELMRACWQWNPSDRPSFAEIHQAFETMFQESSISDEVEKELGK
Assay type: binding

SMILES | ΔTm at 10 µM [°C]
C[C@H](NC(=O)Nc1ccc2cc1OCCOCCNc1ccn3ncc-2c3n1)c1ccccc1 [compound 34] | 1.3
CN1CCN(C(=O)Nc2ccc3cc2OCCOCCNc2ccn4ncc-3c4n2)CC1 [compound 35] | 1.4

What follows are compounds tested against T10, PIM1 (PIM1A) (Homo sapiens, UniProt P11309) (assay: DSF Tm panel). Conditions: 10 μM compound.
T10 construct: purchased in-house DSF kinase panel (SGC-style construct names; the trailing letter is the construct ID)
T10 sequence (P11309 whole entry): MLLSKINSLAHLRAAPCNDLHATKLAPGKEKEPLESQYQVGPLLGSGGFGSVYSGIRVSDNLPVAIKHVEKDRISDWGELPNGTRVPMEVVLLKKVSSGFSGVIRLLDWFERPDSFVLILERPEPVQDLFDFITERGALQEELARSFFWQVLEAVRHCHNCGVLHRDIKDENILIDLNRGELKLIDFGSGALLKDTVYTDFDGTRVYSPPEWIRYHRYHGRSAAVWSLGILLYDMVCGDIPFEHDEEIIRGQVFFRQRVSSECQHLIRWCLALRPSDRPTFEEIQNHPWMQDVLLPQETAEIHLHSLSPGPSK
Assay type: binding

SMILES | ΔTm at 10 µM [°C]
C[C@H](NC(=O)Nc1ccc2cc1OCCOCCNc1ccn3ncc-2c3n1)c1ccccc1 [compound 34] | 0.6
CN1CCN(C(=O)Nc2ccc3cc2OCCOCCNc2ccn4ncc-3c4n2)CC1 [compound 35] | 2.4

Each compound was assayed against T11, GPRK5A (Homo sapiens, UniProt P34947) (assay: DSF Tm panel). Conditions: 10 μM compound.
T11 construct: purchased in-house DSF kinase panel (SGC-style construct names; the trailing letter is the construct ID)
T11 sequence (P34947 186-514): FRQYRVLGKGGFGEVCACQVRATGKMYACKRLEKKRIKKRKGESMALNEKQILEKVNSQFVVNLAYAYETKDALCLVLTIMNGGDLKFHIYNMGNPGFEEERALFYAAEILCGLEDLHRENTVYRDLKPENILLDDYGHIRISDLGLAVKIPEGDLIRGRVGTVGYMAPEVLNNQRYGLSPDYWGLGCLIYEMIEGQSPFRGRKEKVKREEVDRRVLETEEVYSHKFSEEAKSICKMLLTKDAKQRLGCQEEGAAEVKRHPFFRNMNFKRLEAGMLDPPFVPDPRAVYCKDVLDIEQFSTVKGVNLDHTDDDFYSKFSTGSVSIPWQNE
Assay type: binding

SMILES | ΔTm at 10 µM [°C]
C[C@H](NC(=O)Nc1ccc2cc1OCCOCCNc1ccn3ncc-2c3n1)c1ccccc1 [compound 34] | 0.2
CN1CCN(C(=O)Nc2ccc3cc2OCCOCCNc2ccn4ncc-3c4n2)CC1 [compound 35] | 0.8

Each compound was assayed against T12, BRAFA (Homo sapiens, UniProt P15056) (assay: DSF Tm panel). Conditions: 10 μM compound.
T12 construct: purchased in-house DSF kinase panel (SGC-style construct names; the trailing letter is the construct ID)
T12 sequence (P15056 448-723): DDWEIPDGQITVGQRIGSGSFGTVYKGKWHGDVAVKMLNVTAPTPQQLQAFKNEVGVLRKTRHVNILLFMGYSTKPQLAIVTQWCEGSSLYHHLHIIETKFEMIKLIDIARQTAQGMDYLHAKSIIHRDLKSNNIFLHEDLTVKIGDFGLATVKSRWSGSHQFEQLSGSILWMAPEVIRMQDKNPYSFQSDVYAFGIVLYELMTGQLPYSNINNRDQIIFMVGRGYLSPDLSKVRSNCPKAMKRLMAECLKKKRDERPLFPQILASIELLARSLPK
Assay type: binding

SMILES | ΔTm at 10 µM [°C]
C[C@H](NC(=O)Nc1ccc2cc1OCCOCCNc1ccn3ncc-2c3n1)c1ccccc1 [compound 34] | -0.5
CN1CCN(C(=O)Nc2ccc3cc2OCCOCCNc2ccn4ncc-3c4n2)CC1 [compound 35] | 1.2

Each compound was assayed against T13, CSNK1DA (Homo sapiens, UniProt P48730) (assay: DSF Tm panel). Conditions: 10 μM compound.
T13 construct: purchased in-house DSF kinase panel (SGC-style construct names; the trailing letter is the construct ID)
T13 sequence (P48730 1-294): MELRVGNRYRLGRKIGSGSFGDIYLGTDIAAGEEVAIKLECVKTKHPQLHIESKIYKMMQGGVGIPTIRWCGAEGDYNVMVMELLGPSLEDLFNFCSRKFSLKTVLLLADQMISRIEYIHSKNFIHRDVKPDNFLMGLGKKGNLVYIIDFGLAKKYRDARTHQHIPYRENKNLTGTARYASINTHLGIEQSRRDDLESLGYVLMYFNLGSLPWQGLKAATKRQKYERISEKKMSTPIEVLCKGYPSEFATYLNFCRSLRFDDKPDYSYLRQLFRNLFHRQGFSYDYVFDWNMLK
Assay type: binding

SMILES | ΔTm at 10 µM [°C]
C[C@H](NC(=O)Nc1ccc2cc1OCCOCCNc1ccn3ncc-2c3n1)c1ccccc1 [compound 34] | -0.1
CN1CCN(C(=O)Nc2ccc3cc2OCCOCCNc2ccn4ncc-3c4n2)CC1 [compound 35] | 0.5

The compounds below were run against T14, OSR1A (Homo sapiens, UniProt O95747) (assay: DSF Tm panel). Conditions: 10 μM compound.
T14 construct: purchased in-house DSF kinase panel (SGC-style construct names; the trailing letter is the construct ID)
T14 sequence (O95747 17-291): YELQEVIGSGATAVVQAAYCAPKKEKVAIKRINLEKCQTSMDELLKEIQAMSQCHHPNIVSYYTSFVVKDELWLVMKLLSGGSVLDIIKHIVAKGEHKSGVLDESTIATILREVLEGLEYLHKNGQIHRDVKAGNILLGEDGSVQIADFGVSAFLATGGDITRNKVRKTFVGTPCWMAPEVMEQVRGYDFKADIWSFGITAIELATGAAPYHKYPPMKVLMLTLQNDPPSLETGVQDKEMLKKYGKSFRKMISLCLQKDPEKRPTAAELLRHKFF
Assay type: binding

SMILES | ΔTm at 10 µM [°C]
C[C@H](NC(=O)Nc1ccc2cc1OCCOCCNc1ccn3ncc-2c3n1)c1ccccc1 [compound 34] | 1.2
CN1CCN(C(=O)Nc2ccc3cc2OCCOCCNc2ccn4ncc-3c4n2)CC1 [compound 35] | 0

The compounds below were run against T15, DMPK1A (Homo sapiens, UniProt Q09013) (assay: DSF Tm panel). Conditions: 10 μM compound.
T15 construct: purchased in-house DSF kinase panel (SGC-style construct names; the trailing letter is the construct ID)
T15 sequence (Q09013 1-629): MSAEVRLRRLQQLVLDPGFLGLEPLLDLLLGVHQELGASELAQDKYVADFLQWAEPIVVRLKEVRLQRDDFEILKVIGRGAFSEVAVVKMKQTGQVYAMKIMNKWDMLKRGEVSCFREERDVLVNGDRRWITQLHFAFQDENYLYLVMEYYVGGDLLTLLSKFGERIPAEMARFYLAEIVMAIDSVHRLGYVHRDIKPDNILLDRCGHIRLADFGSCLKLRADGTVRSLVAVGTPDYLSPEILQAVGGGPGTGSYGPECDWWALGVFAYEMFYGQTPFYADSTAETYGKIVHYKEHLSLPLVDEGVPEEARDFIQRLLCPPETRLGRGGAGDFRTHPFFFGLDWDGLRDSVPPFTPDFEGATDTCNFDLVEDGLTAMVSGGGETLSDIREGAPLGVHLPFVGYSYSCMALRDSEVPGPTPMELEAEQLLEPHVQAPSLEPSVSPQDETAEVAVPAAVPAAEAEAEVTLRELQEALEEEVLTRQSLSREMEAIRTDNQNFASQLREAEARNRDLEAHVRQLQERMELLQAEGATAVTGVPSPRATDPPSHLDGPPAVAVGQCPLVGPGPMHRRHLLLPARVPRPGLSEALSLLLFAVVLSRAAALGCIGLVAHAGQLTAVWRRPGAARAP
Assay type: binding

SMILES | ΔTm at 10 µM [°C]
C[C@H](NC(=O)Nc1ccc2cc1OCCOCCNc1ccn3ncc-2c3n1)c1ccccc1 [compound 34] | 0
CN1CCN(C(=O)Nc2ccc3cc2OCCOCCNc2ccn4ncc-3c4n2)CC1 [compound 35] | 0.2

Each compound was assayed against T16, SRPK1A (Homo sapiens, UniProt Q96SB4) (assay: DSF Tm panel). Conditions: 10 μM compound.
T16 construct: purchased in-house DSF kinase panel (SGC-style construct names; the trailing letter is the construct ID)
T16 sequence (Q96SB4 80-653): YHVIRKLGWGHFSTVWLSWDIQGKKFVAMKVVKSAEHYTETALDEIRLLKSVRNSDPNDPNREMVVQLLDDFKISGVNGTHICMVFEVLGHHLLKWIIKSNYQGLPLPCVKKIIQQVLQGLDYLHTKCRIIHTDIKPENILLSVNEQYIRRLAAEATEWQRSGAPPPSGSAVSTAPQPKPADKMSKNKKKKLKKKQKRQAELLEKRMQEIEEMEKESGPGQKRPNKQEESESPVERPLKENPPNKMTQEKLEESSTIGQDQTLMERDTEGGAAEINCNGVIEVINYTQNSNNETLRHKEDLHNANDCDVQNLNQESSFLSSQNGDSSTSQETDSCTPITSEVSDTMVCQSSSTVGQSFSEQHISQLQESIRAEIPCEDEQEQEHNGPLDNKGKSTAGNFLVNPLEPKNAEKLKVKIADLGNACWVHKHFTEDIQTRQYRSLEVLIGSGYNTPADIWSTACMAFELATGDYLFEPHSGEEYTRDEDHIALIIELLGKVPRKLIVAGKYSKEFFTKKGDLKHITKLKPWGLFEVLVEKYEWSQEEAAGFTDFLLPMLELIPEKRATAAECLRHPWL
Assay type: binding

SMILES | ΔTm at 10 µM [°C]
C[C@H](NC(=O)Nc1ccc2cc1OCCOCCNc1ccn3ncc-2c3n1)c1ccccc1 [compound 34] | -0.1
CN1CCN(C(=O)Nc2ccc3cc2OCCOCCNc2ccn4ncc-3c4n2)CC1 [compound 35] | 0.2

These compounds were tested against T17, AKT3A (Homo sapiens, UniProt Q9Y243) (assay: DSF Tm panel). Conditions: 10 μM compound.
T17 construct: purchased in-house DSF kinase panel (SGC-style construct names; the trailing letter is the construct ID)
T17 sequence (Q9Y243 148-479): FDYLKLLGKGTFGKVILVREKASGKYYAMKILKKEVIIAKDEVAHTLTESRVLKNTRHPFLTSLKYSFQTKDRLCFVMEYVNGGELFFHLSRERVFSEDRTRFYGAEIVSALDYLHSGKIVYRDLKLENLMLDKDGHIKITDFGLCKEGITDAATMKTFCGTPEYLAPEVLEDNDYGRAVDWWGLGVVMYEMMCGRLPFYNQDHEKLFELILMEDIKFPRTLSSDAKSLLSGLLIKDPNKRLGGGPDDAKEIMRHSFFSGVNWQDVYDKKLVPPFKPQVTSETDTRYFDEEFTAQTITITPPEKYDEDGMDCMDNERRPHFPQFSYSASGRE
Assay type: binding

SMILES | ΔTm at 10 µM [°C]
C[C@H](NC(=O)Nc1ccc2cc1OCCOCCNc1ccn3ncc-2c3n1)c1ccccc1 [compound 34] | 0.4
CN1CCN(C(=O)Nc2ccc3cc2OCCOCCNc2ccn4ncc-3c4n2)CC1 [compound 35] | 0

Each compound was assayed against T18, MAPK14A (Homo sapiens, UniProt Q16539) (assay: DSF Tm panel). Conditions: 10 μM compound.
T18 construct: purchased in-house DSF kinase panel (SGC-style construct names; the trailing letter is the construct ID)
T18 sequence (Q16539 whole entry): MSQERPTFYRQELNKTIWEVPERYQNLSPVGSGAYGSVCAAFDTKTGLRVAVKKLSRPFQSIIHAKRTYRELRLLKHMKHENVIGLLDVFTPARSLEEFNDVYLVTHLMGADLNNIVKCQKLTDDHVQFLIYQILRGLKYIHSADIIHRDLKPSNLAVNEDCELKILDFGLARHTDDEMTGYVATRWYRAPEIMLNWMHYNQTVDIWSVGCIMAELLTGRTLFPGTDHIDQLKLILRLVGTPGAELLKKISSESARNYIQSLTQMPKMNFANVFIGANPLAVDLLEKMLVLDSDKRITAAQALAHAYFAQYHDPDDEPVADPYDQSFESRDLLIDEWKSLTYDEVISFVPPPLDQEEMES
Assay type: binding

SMILES | ΔTm at 10 µM [°C]
C[C@H](NC(=O)Nc1ccc2cc1OCCOCCNc1ccn3ncc-2c3n1)c1ccccc1 [compound 34] | 1.3
CN1CCN(C(=O)Nc2ccc3cc2OCCOCCNc2ccn4ncc-3c4n2)CC1 [compound 35] | -0.3
